Format in all cases: cell-based
The target in test [1] is protein kinases (human kinome) (Homo sapiens, UniProt P49759).
In test [2] the test system is protein kinases (human kinome). To be noted: for logFC MAPK8 (P45983-4): direction down; for logFC MAPK8: MAPK8 P45983-4.
The target of test [3] is protein kinases (human kinome) (Homo sapiens, UniProt O60307). The conditions noted are these: experiment wp081.
In test [4] the target is protein kinases (human kinome) (Homo sapiens, UniProt P11802).
Test [5] deals with protein kinases (human kinome) (Homo sapiens, UniProt P53667). The conditions noted are these: LIMK1 (P53667-1), experiment wp081.
Test [6] concerns the target protein kinases (human kinome) (Homo sapiens, UniProt Q16539).
For test [7], the target named is T1, protein kinases (human kinome) (Homo sapiens, UniProt O14965).
T1 sequence (O14965 1-403): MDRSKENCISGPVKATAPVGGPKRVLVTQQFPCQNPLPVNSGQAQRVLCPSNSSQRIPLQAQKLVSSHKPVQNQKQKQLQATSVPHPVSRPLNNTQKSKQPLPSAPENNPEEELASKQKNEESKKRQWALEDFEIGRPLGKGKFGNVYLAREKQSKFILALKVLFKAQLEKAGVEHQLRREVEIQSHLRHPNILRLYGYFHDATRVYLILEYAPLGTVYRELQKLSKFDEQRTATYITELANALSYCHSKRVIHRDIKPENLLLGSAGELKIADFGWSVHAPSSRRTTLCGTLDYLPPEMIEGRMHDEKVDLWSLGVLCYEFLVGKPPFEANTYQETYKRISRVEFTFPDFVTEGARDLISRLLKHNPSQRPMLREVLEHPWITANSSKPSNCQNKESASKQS

Test [8] addresses protein kinases (human kinome) (Homo sapiens, UniProt P06493). To be noted: CDK1 P06493.
Test [9] concerns the target protein kinases (human kinome) (Homo sapiens, UniProt P24941).
In test [10] the target is protein kinases (human kinome) (Homo sapiens, UniProt P45984). To be noted: MAPK9 P45984-1, experiment wp104.
The target of test [11] is protein kinases (human kinome) (Homo sapiens, UniProt P50613). The conditions noted are these: for logFC: CDK7 (P50613) protein abundance, degrader vs DMSO, down; for logFC CDK7: CDK7 P50613, experiment wp104.
Test [12] addresses protein kinases (human kinome) (Homo sapiens, UniProt P53779). To be noted: for logFC MAPK10 (P53779): direction of change down; for logFC: MAPK10 (P53779), experiment wp104.
The target of test [13] is protein kinases (human kinome) (Homo sapiens, UniProt Q00534). To be noted: for logFC CDK6: CDK6 (Q00534), direction down; for logFC of CDK6 (Q00534): down.
For test [14], the target named is protein kinases (human kinome) (Homo sapiens, UniProt Q00535). To be noted: for logFC of CDK5: Accession Q00535; for logFC CDK5 (Q00535): direction of change down.
The target of test [15] is protein kinases (human kinome) (Homo sapiens, UniProt Q00537). The conditions noted are these: for logFC of CDK17: Accession Q00537; for logFC CDK17 (Q00537): direction of change down.

Here are results for three compounds from patent US20240269139A1, “COMPOUNDS FOR TARGETED PROTEIN DEGRADATION OF KINASES” (DANA-FARBER CANCER INSTITUTE, INC., priority 2020, published 2024).

Read-outs that look alike come from different tables or passages of the source.

protein kinases (human kinome) (Homo sapiens, UniProt P11802), sequence (P11802 whole entry): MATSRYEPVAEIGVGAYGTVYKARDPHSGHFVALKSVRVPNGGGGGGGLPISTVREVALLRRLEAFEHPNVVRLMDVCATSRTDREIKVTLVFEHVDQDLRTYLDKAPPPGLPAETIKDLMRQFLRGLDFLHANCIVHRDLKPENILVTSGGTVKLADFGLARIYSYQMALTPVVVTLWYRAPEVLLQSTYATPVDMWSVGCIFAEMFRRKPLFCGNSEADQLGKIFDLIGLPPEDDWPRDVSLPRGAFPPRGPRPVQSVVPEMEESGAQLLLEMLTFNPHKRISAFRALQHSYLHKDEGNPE
protein kinases (human kinome) (Homo sapiens, UniProt Q00537), sequence (Q00537 whole entry): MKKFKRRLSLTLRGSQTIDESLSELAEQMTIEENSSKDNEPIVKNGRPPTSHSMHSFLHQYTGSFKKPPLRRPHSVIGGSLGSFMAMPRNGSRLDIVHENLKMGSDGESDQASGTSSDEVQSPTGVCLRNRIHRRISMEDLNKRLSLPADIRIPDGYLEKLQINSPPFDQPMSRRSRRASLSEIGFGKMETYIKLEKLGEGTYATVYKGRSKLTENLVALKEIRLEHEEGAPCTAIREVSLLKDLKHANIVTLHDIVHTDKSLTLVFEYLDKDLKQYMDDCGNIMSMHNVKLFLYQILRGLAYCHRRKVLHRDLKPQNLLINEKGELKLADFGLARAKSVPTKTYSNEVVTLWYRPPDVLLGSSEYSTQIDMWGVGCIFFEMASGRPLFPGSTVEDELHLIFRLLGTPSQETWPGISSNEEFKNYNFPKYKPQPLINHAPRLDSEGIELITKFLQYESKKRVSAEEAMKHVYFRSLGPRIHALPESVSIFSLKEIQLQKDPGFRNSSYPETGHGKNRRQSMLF
protein kinases (human kinome) (Homo sapiens, UniProt P06493), sequence (P06493 whole entry): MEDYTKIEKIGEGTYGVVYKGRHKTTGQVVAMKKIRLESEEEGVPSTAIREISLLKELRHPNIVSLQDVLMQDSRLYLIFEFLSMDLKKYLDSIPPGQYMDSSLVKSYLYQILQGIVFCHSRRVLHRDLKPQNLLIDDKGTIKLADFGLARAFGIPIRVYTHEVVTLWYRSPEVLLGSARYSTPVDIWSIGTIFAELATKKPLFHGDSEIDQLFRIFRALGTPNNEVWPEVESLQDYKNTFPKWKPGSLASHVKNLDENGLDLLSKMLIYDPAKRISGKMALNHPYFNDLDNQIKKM
protein kinases (human kinome) (Homo sapiens, UniProt P45984), sequence (P45984 whole entry): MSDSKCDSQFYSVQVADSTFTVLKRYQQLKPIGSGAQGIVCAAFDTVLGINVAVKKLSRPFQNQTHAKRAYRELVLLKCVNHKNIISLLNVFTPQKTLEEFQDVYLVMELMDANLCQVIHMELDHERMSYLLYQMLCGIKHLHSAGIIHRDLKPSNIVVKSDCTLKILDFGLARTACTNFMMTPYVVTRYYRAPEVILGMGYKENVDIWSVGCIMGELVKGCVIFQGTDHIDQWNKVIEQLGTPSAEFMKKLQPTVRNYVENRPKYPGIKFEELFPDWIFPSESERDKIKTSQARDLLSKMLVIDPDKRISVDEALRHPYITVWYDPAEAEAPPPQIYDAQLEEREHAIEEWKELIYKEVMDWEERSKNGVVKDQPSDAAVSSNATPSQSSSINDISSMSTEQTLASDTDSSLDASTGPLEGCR
protein kinases (human kinome) (Homo sapiens, UniProt Q00534), sequence (Q00534 whole entry): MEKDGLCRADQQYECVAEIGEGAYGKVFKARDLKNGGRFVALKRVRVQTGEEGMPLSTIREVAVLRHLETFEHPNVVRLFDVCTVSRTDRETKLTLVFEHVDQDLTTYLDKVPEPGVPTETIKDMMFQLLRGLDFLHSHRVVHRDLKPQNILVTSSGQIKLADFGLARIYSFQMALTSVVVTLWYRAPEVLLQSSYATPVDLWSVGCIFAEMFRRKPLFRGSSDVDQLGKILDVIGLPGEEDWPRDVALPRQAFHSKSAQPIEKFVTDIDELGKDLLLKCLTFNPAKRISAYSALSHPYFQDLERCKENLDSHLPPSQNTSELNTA
protein kinases (human kinome) (Homo sapiens, UniProt Q00535), sequence (Q00535 whole entry): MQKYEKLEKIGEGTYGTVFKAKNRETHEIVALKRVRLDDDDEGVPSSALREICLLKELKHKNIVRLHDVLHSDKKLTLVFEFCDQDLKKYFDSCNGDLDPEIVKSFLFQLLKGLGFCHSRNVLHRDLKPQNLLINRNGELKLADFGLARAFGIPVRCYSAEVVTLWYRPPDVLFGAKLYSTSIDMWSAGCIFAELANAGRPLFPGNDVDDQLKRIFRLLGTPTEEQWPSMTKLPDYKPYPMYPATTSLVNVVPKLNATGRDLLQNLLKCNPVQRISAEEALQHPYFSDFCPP
protein kinases (human kinome) (Homo sapiens, UniProt P53779), sequence (P53779 whole entry): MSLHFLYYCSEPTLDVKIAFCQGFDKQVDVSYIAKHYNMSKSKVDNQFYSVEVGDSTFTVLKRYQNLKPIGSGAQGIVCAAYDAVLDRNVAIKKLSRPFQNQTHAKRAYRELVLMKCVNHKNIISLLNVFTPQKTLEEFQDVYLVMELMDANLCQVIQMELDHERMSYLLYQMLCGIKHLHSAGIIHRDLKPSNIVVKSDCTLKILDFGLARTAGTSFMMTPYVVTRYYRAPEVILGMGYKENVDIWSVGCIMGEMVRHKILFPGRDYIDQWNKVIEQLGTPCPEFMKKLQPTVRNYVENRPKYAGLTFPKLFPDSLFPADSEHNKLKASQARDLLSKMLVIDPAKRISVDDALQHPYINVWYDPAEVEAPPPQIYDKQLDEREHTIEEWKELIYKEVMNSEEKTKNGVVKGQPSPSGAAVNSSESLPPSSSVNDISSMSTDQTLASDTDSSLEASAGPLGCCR
protein kinases (human kinome) (Homo sapiens, UniProt P50613), sequence (P50613 whole entry): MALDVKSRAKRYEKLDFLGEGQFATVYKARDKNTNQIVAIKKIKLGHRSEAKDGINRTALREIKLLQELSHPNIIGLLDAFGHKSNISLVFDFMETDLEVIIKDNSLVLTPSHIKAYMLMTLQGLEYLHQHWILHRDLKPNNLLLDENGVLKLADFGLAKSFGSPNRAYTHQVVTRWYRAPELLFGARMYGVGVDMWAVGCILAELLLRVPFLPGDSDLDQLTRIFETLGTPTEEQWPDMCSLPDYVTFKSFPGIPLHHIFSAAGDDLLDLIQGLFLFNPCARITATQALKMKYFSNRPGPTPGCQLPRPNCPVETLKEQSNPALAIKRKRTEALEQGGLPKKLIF
protein kinases (human kinome) (Homo sapiens, UniProt P53667), sequence (P53667 whole entry): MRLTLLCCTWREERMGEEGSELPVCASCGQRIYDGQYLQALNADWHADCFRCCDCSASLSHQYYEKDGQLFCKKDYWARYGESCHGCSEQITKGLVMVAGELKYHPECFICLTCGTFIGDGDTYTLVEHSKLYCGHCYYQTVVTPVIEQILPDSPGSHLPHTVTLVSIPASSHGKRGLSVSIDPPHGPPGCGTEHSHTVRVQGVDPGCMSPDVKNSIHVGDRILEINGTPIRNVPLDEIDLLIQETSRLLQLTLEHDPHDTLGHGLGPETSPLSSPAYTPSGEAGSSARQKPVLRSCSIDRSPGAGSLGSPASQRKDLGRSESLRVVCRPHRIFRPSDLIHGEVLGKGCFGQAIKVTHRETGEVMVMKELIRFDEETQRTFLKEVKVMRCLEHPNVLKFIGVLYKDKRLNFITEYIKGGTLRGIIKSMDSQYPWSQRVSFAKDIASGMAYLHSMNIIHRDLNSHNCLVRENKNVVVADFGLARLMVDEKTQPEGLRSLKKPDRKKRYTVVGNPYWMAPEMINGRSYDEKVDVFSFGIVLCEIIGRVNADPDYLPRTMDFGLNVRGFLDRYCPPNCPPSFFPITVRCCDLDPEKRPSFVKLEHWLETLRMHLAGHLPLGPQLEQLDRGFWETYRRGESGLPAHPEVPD
protein kinases (human kinome) (Homo sapiens, UniProt O60307), sequence (O60307 whole entry): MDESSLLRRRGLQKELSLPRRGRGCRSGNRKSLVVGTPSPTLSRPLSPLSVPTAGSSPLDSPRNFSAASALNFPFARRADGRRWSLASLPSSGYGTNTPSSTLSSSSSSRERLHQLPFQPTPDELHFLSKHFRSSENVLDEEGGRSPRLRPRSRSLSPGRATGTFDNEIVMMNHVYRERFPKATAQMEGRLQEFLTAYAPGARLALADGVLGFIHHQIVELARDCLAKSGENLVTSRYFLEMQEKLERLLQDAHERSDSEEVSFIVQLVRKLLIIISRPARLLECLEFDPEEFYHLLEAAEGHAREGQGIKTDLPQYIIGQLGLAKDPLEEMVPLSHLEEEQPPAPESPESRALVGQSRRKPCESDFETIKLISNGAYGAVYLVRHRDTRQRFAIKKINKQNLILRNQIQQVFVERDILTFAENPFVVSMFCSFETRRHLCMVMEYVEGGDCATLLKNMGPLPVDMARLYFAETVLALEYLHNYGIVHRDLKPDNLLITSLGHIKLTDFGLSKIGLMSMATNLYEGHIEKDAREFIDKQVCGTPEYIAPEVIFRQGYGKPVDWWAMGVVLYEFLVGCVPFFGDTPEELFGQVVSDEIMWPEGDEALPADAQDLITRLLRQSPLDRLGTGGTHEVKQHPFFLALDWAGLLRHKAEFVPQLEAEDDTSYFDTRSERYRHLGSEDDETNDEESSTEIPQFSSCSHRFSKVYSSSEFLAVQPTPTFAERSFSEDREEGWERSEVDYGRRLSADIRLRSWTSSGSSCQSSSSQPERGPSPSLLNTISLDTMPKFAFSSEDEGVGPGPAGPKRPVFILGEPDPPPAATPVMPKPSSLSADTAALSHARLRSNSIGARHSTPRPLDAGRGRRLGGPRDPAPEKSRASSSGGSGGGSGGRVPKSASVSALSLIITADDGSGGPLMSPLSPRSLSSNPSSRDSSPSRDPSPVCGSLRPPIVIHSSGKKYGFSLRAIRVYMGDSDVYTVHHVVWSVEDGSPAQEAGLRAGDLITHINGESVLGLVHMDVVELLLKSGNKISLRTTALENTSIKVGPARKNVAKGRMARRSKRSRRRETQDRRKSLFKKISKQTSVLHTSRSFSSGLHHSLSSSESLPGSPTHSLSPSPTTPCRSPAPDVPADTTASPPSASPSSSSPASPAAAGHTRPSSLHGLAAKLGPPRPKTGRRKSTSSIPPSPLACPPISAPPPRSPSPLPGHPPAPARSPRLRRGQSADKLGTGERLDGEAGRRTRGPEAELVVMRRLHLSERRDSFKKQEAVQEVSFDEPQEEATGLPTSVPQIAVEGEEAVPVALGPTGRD

For the compound `Cc1ncsc1-c1ccc([C@H](C)NC(=O)[C@@H]2C[C@@H](O)CN2C(=O)[C@@H](NC(=O)CCOCCOCCOCCN2CCC(C(=O)Nc3ncc(SCc4ncc(C(C)(C)C)o4)s3)CC2)C(C)(C)C)cc1` [ZZ.01.31B], in test [1] (CLK1 P49759, experiment wp195), the “logFC CLK1” value is recorded as −0.3482. Also, the “logFC of CLK1 (P49759)” value in test [1] (Experiment wp195) is reported as −0.3482. In addition, in test [2] (CDK9 (P50750-2) protein abundance, degrader vs DMSO, down), the logFC is −0.837. Besides, the “logFC CDK9 (P50750-2)” value in test [2] (Experiment wp195) is on record as −0.837.

Consider `CC(C)(C)c1cc(NC(=O)Nc2ccc(Oc3ccnc(C(=O)NCCOCCOCCNC(=O)CNc4cccc5c4C(=O)N(C4CCC(=O)NC4=O)C5=O)c3)cc2F)n(-c2ccc3ncccc3c2)n1` (centres unmarked) [TL13.178], for which the “logFC MAST3 (O60307)” value in test [3] (direction of change down) is given as −0.4852. Further, in [3] (protein MAST3 (O60307), down), the “logFC MAST3” value is reported as −0.4852. The “logFC CDK4 (P11802)” value in [4] (experiment wp081) is listed as −0.5762. In addition, the “logFC LIMK1” value in [5] (direction down) and in test [5] (down) was −0.3359 each time. Moreover, in test [6] (MAPK14 (Q16539) protein abundance, degrader vs DMSO, down), the logFC is listed as −0.5659. Besides, the “logFC MAPK14” value is recorded as −0.5659 in test [6] (MAPK14, accession Q16539, experiment wp081, direction of change down); −0.3343 in test [2] (MAPK14, accession Q16539-2, experiment wp081, direction of change down); −0.3343 in [2] (MAPK14 Q16539-2, experiment wp081). The “logFC MAP3K20 (Q9NYL2-2)” value in [2] (Experiment wp081) and in test [2] (experiment wp081) was −1.407 in each case.

`NC(=O)c1c(F)cccc1Nc1nc(NC2CCN(S(=O)(=O)CCNC(=O)CCCCCCCCOc3cccc4c3C(=O)N(C3CCC(=O)NC3=O)C4=O)CC2)ncc1Br` (centres unmarked) [TMX.01.160.1]: the “logFC AURKA (O14965)” value in test [7] (experiment wp104, _0.25) was −1.326; in test [7] (experiment wp104, _1), −1.466. The logFC is listed as −0.7936 in test [8] (experiment wp104, 0.25); −0.9413 in [8] (experiment wp104, 1); −1.635 in [10] (_0.25); −1.496 in [10] (_1); −0.4941 in test [11] (experiment suffix _0.25); −0.5204 in test [11] (experiment suffix _1). The logFC in [12] (suffix _0.25) and in test [12] (suffix _1) was −0.5743 each time. The “logFC CDK1” value in [8] (experiment wp104, 0.25) is recorded as −0.7936; in test [8] (experiment wp104, 1), −0.9413. Besides, the “logFC CDK4 (P11802)” value is −0.5542 in test [4] (experiment wp104, _0.25) and −0.7676 in [4] (experiment wp104, _1). For the same compound, the “logFC CDK2 (P24941-1)” value was −1.024 in test [9] (experiment wp104, _0.25); −1.024 in test [9] (experiment wp104, _0.25, direction of change down); −0.9457 in test [9] (experiment wp104, _1); −0.9457 in test [9] (experiment wp104, _1, direction of change down). For the same compound, the “logFC MAPK9” value in test [10] (_0.25) is on record as −1.635; in [10] (_1), −1.496. Besides, the “logFC CDK7” value was −0.4941 in test [11] (_0.25) and −0.5204 in test [11] (_1). For the same compound, the “logFC MAPK10 (P53779)” value in test [12] (Experiment wp104_TMX.01.160.1_0.25) and in test [12] (Experiment wp104_TMX.01.160.1_1) was −0.5743 each time. The “logFC CDK6” value in test [13] (experiment wp104, _0.25) is reported as −0.866; in [13] (experiment wp104, _1), −0.8425. For the same compound, the “logFC of CDK6 (Q00534)” value in [13] (Experiment wp104, _0.25) is recorded as −0.866; in test [13] (Experiment wp104, _1) it was −0.8425. Besides, the “logFC of CDK5” value in test [14] (experiment wp104, suffix _0.25) is on record as −1.866; in test [14] (experiment wp104, suffix _1), −1.827. Further, the “logFC CDK5 (Q00535)” value in test [14] (experiment wp104, _0.25) is −1.866; in test [14] (experiment wp104, _1) it was −1.827. For the same compound, the “logFC of CDK17” value is on record as −0.7788 in test [15] (experiment wp104, suffix _0.25) and −0.6817 in test [15] (experiment wp104, suffix _1). In addition, the “logFC CDK17 (Q00537)” value is −0.7788 in test [15] (experiment wp104, _0.25) and −0.6817 in test [15] (experiment wp104, _1). Also, the “logFC MAPK8 (P45983-4)” value is −0.3338 in [2] (Experiment wp104, _0.25) and −0.476 in test [2] (Experiment wp104, _1). Moreover, the “logFC MAPK8” value in [2] (experiment wp104, _0.25) is reported as −0.3338; in test [2] (experiment wp104, _1) it was −0.476. The “logFC CDK16 (Q00536-2)” value is listed as −0.8646 in [2] (experiment wp104, 0.25); −0.6009 in test [2] (experiment wp104, 1); −0.8646 in test [2] (experiment wp104, suffix _0.25); −0.6009 in test [2] (experiment wp104, suffix _1).
